In patent US6525001B1, “Substituted pyrimidine and pyridine herbicides” (Mid-American Commercialization Corporation, priority 1997, dated 2003):

Assays:
Assay type in all cases: in vivo
[1] = test system: barnyardgrass (Echinochloa crus-galli); assay: Test C; conditions: PREEMERGENCE
corn (Zea mays) = assay: Test C; set-up: key: 0 was no effect; 100 was complete control; conditions: PREEMERGENCE
[2] = test system: fall panicum (Panicum dichotomiflorum); assay: Test C; set-up: key: 0 was no effect; 100 was complete control; conditions: PREEMERGENCE
[3] = test system: hairy beggarticks (Bidens pilosa); assay: Test C; set-up: key: 0 was no effect; 100 was complete control; conditions: PREEMERGENCE
[4] = test system: johnsongrass (Sorghum halepense); assay: Test C; conditions: PREEMERGENCE
[5] = test system: redroot pigweed (Amaranthus retroflexus); assay: Test C; set-up: key: 0 was no effect; 100 was complete control; conditions: PREEMERGENCE
soybean (Glycine max) = assay: Test C; set-up: key: 0 was no effect; 100 was complete control; conditions: PREEMERGENCE
[6] = test system: surinam grass (Brachiaria decumbens); assay: Test C; set-up: key: 0 was no effect; 100 was complete control; conditions: PREEMERGENCE
[7] = test system: bermudagrass (Cynodon dactylon); assay: Test E pre-/postemergence/post directed; set-up: key: 0 is no effect; 100 is complete control; conditions: PREEMERGENCE
Excerpt: (§1) Seeds, tubers, or plant parts of alexandergrass (Brachiaria plantaginea), annual bluegrass (Poa annua), arrowleaf sida (Sida rhombifolia), barnyardgrass (Echinochloa crus-galli), bermudagrass (Cynodon dactylon), citrus (Citrus sinensis), common chickweed (Stellaria media), common purslane (Portulaca oleracea), common ragweed (Ambrosia elatior), common groundsel (Senecio vulgaris), dallisgrass (Paspalum dilatatum), goosegrass (Eleusine indica), green foxtail (Setaria viridis), guineagrass (Panicum maximum), itchgrass (Rottboellia exaltata), johnson grass (Sorghum halepense), kochia (Kochia scoparia), large crabgrass (Digitaria sanguinalis), leafy spurge (Euphorbia esula), pitted morningglory (Ipomoea lacunosa), purple nutsedge (Cyperus rotundus), quackgrass (Agropyron repens), Russian thistle (Salsola kali), sandbur (Cenchrus echinatus), sourgrass (Trichachne insularis), Spanishneedles (Bidens bipinnata), sugarcane (Saccharum officinarum), surinam grass (Brachiaria decumbens) and tall mallow (Malva sylvestris) were planted into greenhouse pots of flats containing greenhouse planting medium. Plant species were grown grown in separate pots or individual compartments. Preemergence applications were made within one day of planting the seed or plant part. Postemergence applications were applied when the plants were in the two to four leaf stage (three to twenty cm).
(§2) Test chemicals were formulated in a non-phytotoxic solvent mixture which included a surfactant and applied preemergence to the soil surface, postemergence to the plants or as a post directed spray to plants and soil at the base of the target species. Untreated control plants and treated plants were placed in the greenhouse and visually evaluated for injury 13 to 21 days after herbicide application. Plant response ratings, summarized in Table E, are based on a 0 to 100 scale where 0 is no injury and 100 is complete control. A dash (−) response means no test result.

[8] = test system: common groundsel (Senecio vulgaris); assay: Test E pre-/postemergence/post directed; set-up: key: 0 is no effect; 100 is complete control
Excerpt: as §1, §2

[9] = test system: common purslane (Portulaca oleracea); assay: Test E pre-/postemergence/post directed; set-up: key: 0 is no effect; 100 is complete control
Excerpt: as §1, §2

[10] = test system: common ragweed (Ambrosia elatior); assay: Test E pre-/postemergence/post directed; set-up: key: 0 is no effect; 100 is complete control; conditions: PREEMERGENCE
Excerpt: as §1, §2

[11] = test system: dallisgrass (Paspalum dilatatum); assay: Test E pre-/postemergence/post directed; set-up: key: 0 is no effect; 100 is complete control
Excerpt: as §1, §2

[12] = test system: goosegrass (Eleusine indica); assay: Test E pre-/postemergence/post directed; set-up: key: 0 is no effect; 100 is complete control
Excerpt: as §1, §2

[13] = test system: guineagrass (Panicum maximum); assay: Test E pre-/postemergence/post directed; set-up: key: 0 is no effect; 100 is complete control
Excerpt: as §1, §2

[14] = test system: large crabgrass (Digitaria sanguinalis); assay: Test E pre-/postemergence/post directed; set-up: key: 0 is no effect; 100 is complete control; conditions: PREEMERGENCE
Excerpt: as §1, §2

[15] = test system: sourgrass (Trichachne insularis); assay: Test E pre-/postemergence/post directed; set-up: key: 0 is no effect; 100 is complete control
Excerpt: as §1, §2

[16] = test system: tall mallow (Malva sylvestris); assay: Test E pre-/postemergence/post directed; set-up: key: 0 is no effect; 100 is complete control; conditions: PREEMERGENCE
Excerpt: as §1, §2

CCc1cnc(-n2ccc(C(F)(F)F)n2)nc1Cc1cccc(C(F)(F)F)c1 [Compound 46]
Plant response rating, Barnyardgrass ([1]; Rate 35 g/ha): 5 | Plant response rating, Barnyardgrass ([1]; Rate 70 g/ha): 10 | Plant response rating, Barnyardgrass ([1]; Rate 140 g/ha): 50 | Plant response rating, Corn (corn (Zea mays); Rate 35 g/ha): 0 | Plant response rating, Corn (corn (Zea mays); Rate 70 g/ha): 0 | Plant response rating, Corn (corn (Zea mays); Rate 140 g/ha): 5 | Plant response rating, Fall panicum ([2]; Rate 35 g/ha): 60 | Plant response rating, Fall panicum ([2]; Rate 70 g/ha): 100 | Plant response rating, Fall panicum ([2]; Rate 140 g/ha): 100 | Plant response rating, H. beggarticks ([3]; Rate 35 g/ha): 0 | Plant response rating, H. beggarticks ([3]; Rate 70 g/ha): 100 | Plant response rating, H. beggarticks ([3]; Rate 140 g/ha): 100 | Plant response rating, Johnsongrass ([4]; Rate 35 g/ha): 5 | Plant response rating, Johnsongrass ([4]; Rate 70 g/ha): 45 | Plant response rating, Johnsongrass ([4]; Rate 140 g/ha): 50 | Plant response rating, Redroot pigweed ([5]; Rate 35 g/ha): 70 | Plant response rating, Redroot pigweed ([5]; Rate 70 g/ha): 100 | Plant response rating, Redroot pigweed ([5]; Rate 140 g/ha): 100 | Plant response rating, Soybean (soybean (Glycine max); Rate 35 g/ha): 0 | Plant response rating, Soybean (soybean (Glycine max); Rate 70 g/ha): 0 | Plant response rating, Soybean (soybean (Glycine max); Rate 140 g/ha): 20 | Plant response rating, Surinam grass ([6]; Rate 35 g/ha): 0 | Plant response rating, Surinam grass ([6]; Rate 70 g/ha): 5 | Plant response rating, Surinam grass ([6]; Rate 140 g/ha): 25 | Plant response rating, Bermudagrass ([7]; Rate 125 g/ha): 100 | Plant response rating, Bermudagrass ([7]; Rate 250 g/ha): 100 | Plant response rating, Com. groundsel ([8]; PREEMERGENCE, Rate 32 g/ha): 100 | Plant response rating, Com. groundsel ([8]; PREEMERGENCE, Rate 64 g/ha): 100 | Plant response rating, Com. groundsel ([8]; PREEMERGENCE, Rate 125 g/ha): 100 | Plant response rating, Com. groundsel ([8]; PREEMERGENCE, Rate 250 g/ha): 100 | Plant response rating, Com. purslane ([9]; PREEMERGENCE, Rate 32 g/ha): 100 | Plant response rating, Com. purslane ([9]; PREEMERGENCE, Rate 64 g/ha): 100 | Plant response rating, Com. purslane ([9]; PREEMERGENCE, Rate 125 g/ha): 100 | Plant response rating, Com. purslane ([9]; PREEMERGENCE, Rate 250 g/ha): 100 | Plant response rating, Com. ragweed ([10]; Rate 250 g/ha): 100 | Plant response rating, Dallisgrass ([11]; PREEMERGENCE, Rate 32 g/ha): 65 | Plant response rating, Dallisgrass ([11]; PREEMERGENCE, Rate 64 g/ha): 98 | Plant response rating, Dallisgrass ([11]; PREEMERGENCE, Rate 125 g/ha): 100 | Plant response rating, Dallisgrass ([11]; PREEMERGENCE, Rate 250 g/ha): 100 | Plant response rating, Goosegrass ([12]; PREEMERGENCE, Rate 32 g/ha): 85 | Plant response rating, Goosegrass ([12]; PREEMERGENCE, Rate 64 g/ha): 90 | Plant response rating, Goosegrass ([12]; PREEMERGENCE, Rate 125 g/ha): 98 | Plant response rating, Goosegrass ([12]; PREEMERGENCE, Rate 250 g/ha): 100 | Plant response rating, Guineagrass ([13]; PREEMERGENCE, Rate 32 g/ha): 60 | Plant response rating, Guineagrass ([13]; PREEMERGENCE, Rate 64 g/ha): 85 | Plant response rating, Guineagrass ([13]; PREEMERGENCE, Rate 125 g/ha): 100 | Plant response rating, Guineagrass ([13]; PREEMERGENCE, Rate 250 g/ha): 98 | Plant response rating, Large crabgrass ([14]; Rate 125 g/ha): 100 | Plant response rating, Large crabgrass ([14]; Rate 250 g/ha): 100 | Plant response rating, Sourgrass ([15]; PREEMERGENCE, Rate 32 g/ha): 98 | Plant response rating, Sourgrass ([15]; PREEMERGENCE, Rate 64 g/ha): 100 | Plant response rating, Sourgrass ([15]; PREEMERGENCE, Rate 125 g/ha): 100 | Plant response rating, Sourgrass ([15]; PREEMERGENCE, Rate 250 g/ha): 100 | Plant response rating, Tall Mallow ([16]; Rate 32 g/ha): 100 | Plant response rating, Tall Mallow ([16]; Rate 64 g/ha): 100 | Plant response rating, Tall Mallow ([16]; Rate 125 g/ha): 100 | Plant response rating, Tall Mallow ([16]; Rate 250 g/ha): 100

Cc1cnc(-n2ccc(C(F)(F)F)n2)nc1Cn1ccc(C(F)(F)F)n1 [Compound 52]
Plant response rating, Barnyardgrass ([1]; Rate 35 g/ha): 30 | Plant response rating, Barnyardgrass ([1]; Rate 70 g/ha): 40 | Plant response rating, Barnyardgrass ([1]; Rate 140 g/ha): 40 | Plant response rating, Corn (corn (Zea mays); Rate 35 g/ha): 0 | Plant response rating, Corn (corn (Zea mays); Rate 70 g/ha): 45 | Plant response rating, Corn (corn (Zea mays); Rate 140 g/ha): 50 | Plant response rating, Fall panicum ([2]; Rate 35 g/ha): 100 | Plant response rating, Fall panicum ([2]; Rate 70 g/ha): 100 | Plant response rating, Fall panicum ([2]; Rate 140 g/ha): 100 | Plant response rating, H. beggarticks ([3]; Rate 35 g/ha): 0 | Plant response rating, H. beggarticks ([3]; Rate 70 g/ha): 0 | Plant response rating, H. beggarticks ([3]; Rate 140 g/ha): 30 | Plant response rating, Johnsongrass ([4]; Rate 35 g/ha): 40 | Plant response rating, Johnsongrass ([4]; Rate 70 g/ha): 50 | Plant response rating, Johnsongrass ([4]; Rate 140 g/ha): 80 | Plant response rating, Redroot pigweed ([5]; Rate 35 g/ha): 100 | Plant response rating, Redroot pigweed ([5]; Rate 70 g/ha): 100 | Plant response rating, Redroot pigweed ([5]; Rate 140 g/ha): 100 | Plant response rating, Soybean (soybean (Glycine max); Rate 35 g/ha): 0 | Plant response rating, Soybean (soybean (Glycine max); Rate 70 g/ha): 55 | Plant response rating, Soybean (soybean (Glycine max); Rate 140 g/ha): 70 | Plant response rating, Surinam grass ([6]; Rate 35 g/ha): 5 | Plant response rating, Surinam grass ([6]; Rate 70 g/ha): 40 | Plant response rating, Surinam grass ([6]; Rate 140 g/ha): 70 | Plant response rating, Bermudagrass ([7]; Rate 125 g/ha): 100 | Plant response rating, Com. groundsel ([8]; POSTEMERGENCE, Rate 125 g/ha): 100 | Plant response rating, Com. groundsel ([8]; POSTEMERGENCE, Rate 250 g/ha): 100 | Plant response rating, Com. groundsel ([8]; PREEMERGENCE, Rate 125 g/ha): 100 | Plant response rating, Com. purslane ([9]; POSTEMERGENCE, Rate 125 g/ha): 50 | Plant response rating, Com. purslane ([9]; POSTEMERGENCE, Rate 250 g/ha): 75 | Plant response rating, Com. purslane ([9]; PREEMERGENCE, Rate 32 g/ha): 100 | Plant response rating, Com. purslane ([9]; PREEMERGENCE, Rate 64 g/ha): 100 | Plant response rating, Com. purslane ([9]; PREEMERGENCE, Rate 125 g/ha): 100 | Plant response rating, Com. ragweed ([10]; Rate 125 g/ha): 100 | Plant response rating, Dallisgrass ([11]; POSTEMERGENCE, Rate 125 g/ha): 5 | Plant response rating, Dallisgrass ([11]; POSTEMERGENCE, Rate 250 g/ha): 75 | Plant response rating, Dallisgrass ([11]; PREEMERGENCE, Rate 32 g/ha): 35 | Plant response rating, Dallisgrass ([11]; PREEMERGENCE, Rate 64 g/ha): 80 | Plant response rating, Dallisgrass ([11]; PREEMERGENCE, Rate 125 g/ha): 90 | Plant response rating, Goosegrass ([12]; POSTEMERGENCE, Rate 125 g/ha): 5 | Plant response rating, Goosegrass ([12]; POSTEMERGENCE, Rate 250 g/ha): 75 | Plant response rating, Goosegrass ([12]; PREEMERGENCE, Rate 32 g/ha): 20 | Plant response rating, Goosegrass ([12]; PREEMERGENCE, Rate 64 g/ha): 100 | Plant response rating, Goosegrass ([12]; PREEMERGENCE, Rate 125 g/ha): 100 | Plant response rating, Guineagrass ([13]; POSTEMERGENCE, Rate 125 g/ha): 80 | Plant response rating, Guineagrass ([13]; POSTEMERGENCE, Rate 250 g/ha): 85 | Plant response rating, Guineagrass ([13]; PREEMERGENCE, Rate 32 g/ha): 60 | Plant response rating, Guineagrass ([13]; PREEMERGENCE, Rate 64 g/ha): 80 | Plant response rating, Guineagrass ([13]; PREEMERGENCE, Rate 125 g/ha): 100 | Plant response rating, Large crabgrass ([14]; Rate 64 g/ha): 100 | Plant response rating, Large crabgrass ([14]; Rate 125 g/ha): 100 | Plant response rating, Sourgrass ([15]; POSTEMERGENCE, Rate 125 g/ha): 10 | Plant response rating, Sourgrass ([15]; POSTEMERGENCE, Rate 250 g/ha): 50 | Plant response rating, Sourgrass ([15]; PREEMERGENCE, Rate 32 g/ha): 95 | Plant response rating, Sourgrass ([15]; PREEMERGENCE, Rate 64 g/ha): 100 | Plant response rating, Sourgrass ([15]; PREEMERGENCE, Rate 125 g/ha): 100 | Plant response rating, Tall Mallow ([16]; Rate 32 g/ha): 60 | Plant response rating, Tall Mallow ([16]; Rate 64 g/ha): 98 | Plant response rating, Tall Mallow ([16]; Rate 125 g/ha): 100
